US20150329878A1, “FERMENTATIVE PRODUCTION OF A HYDROCARBON” (GLOBAL BIOENERGIES, priority 2012, published 2015)
Read-outs that look alike come from different tables or passages of the source.

Key:
[1] = in the presence of CO2 and N2 mixtures; cited from earlier work
[2] = cited from earlier work
[3] = test system: Escherichia coli, strain MG1655; experiment: Effect of high partial pressure of carbon dioxide on growth and metabolism of E. coli cultured on glucose (batch fermenters); assay type: cell-based; conditions: pCO2~800 mbar
Procedure: Escherichia coli, strain MG1655 (ATCC Number 700926; American Type Culture Collection (ATCC), Manassas, Va.), was grown in batch mode in 1.4 L Multifors fermenters (Infors A G, Basel, Switzerland) equipped with temperature, pH and dO (dissolved oxygen) control. Initially, the fermenters contained in 1 L total volume: KH2PO4, 7.5 g/L; MgSO4.7H2O, 2.0 g/L; citric acid, 1.83 g/L; ferric ammonium citrate, 0.3 g/L; CaCl2.2H2O, 0.2 g/L; sulfuric acid (98%), 1.2 mL/L; yeast extract, 5 g/L; and glucose (10 g/L). After sterilization, 10 mL of a trace metal mixture and 1 mL of a thiamine solution (150 mM) was added and the medium was adjusted to the desired pH (see below) with 3 M NaOH. The trace metal mixture contained: MnSO4.H2O, 3 g/L; NaCl, 1 g/L; FeSO4.7H2O, 0.1 g/L; CoCl2.6H2O, 0.1 g/L; ZnSO4.7H2O, 0.1 g/L; CuSO4.5H2O, 0.0064 g/L; H3BO3, 0.01 g/L; and Na2MoO4.2H2O, 0.01 g/L. In one set of three fermenters, gas flow (air) was fixed at 0.5 VVM (volume per volume per minute) and pH was automatically maintained at pH 6.2, pH 6.5 and 6.8 with the addition of 3 M NaOH. […]
After equilibration with the gases, evident by the cessation of NaOH addition, the fermenters were inoculated at an initial OD600 of approximately 0.4 absorbance units (AU). […]

microbial growth = conditions: pCO2~300 mbar; Baez A et al. 2009; cited from earlier work

Row | Compound | flammable minimum oxygen concentration (MOC) value [1] | solubility in water ([2]; at 1 bar and 20° C.) | effect on growth rate of E. coli [3] | effect on microbial growth (microbial growth) | solubility in water ([2]; at 1 bar and 25° C.)
1 | C=CC=C [1,3-butadiene] | about 10.5% | about 735 ppm | – | – | –
2 | O=C=O [carbon dioxide] | – | – | only slight impairments of growth rate | significantly inhibit microbial growth | –
3 | C=C(C)C [isobutene] | about 13% | about 260 ppm | – | – | –
4 | C=CC(=C)C [isoprene] | about 9.7% | – | – | – | about 642 ppm
5 | C=CC [propylene] | about 13% | – | – | – | –
